Measured values taken from patent publication US20080176787A1, “Parathyroid hormone analogues and methods of use” (priority 2005, published 2008).
Positions of bridges follow the written chain, without caps; N, C: chain ends. Residues, ends and D or L forms follow the SMILES beside them.

Tests used:
[1] = tested on: post-menopausal women with low bone mineral density; experiment: Phase II clinical study of subcutaneous Ostabolin-C in post-menopausal women with low BMD (BMD, bone markers, serum calcium, side effects)
Source text: A four month Phase II clinical study was undertaken to investigate the safety, tolerability and efficacy of Ostabolin-C™ in post-menopausal women with low bone mineral density (BMD). […] The clinical protocol is a 16-week phase II randomized, double-blind, placebo-controlled, parallel group, dose finding study to investigate the safety, tolerability and efficacy of Ostabolin-C™ in post-menopausal women with low bone mineral density (BMD). In this study, 261 patients underwent four months of daily dosing of placebo and four active groups. The active groups included daily administration of Ostabolin-C™ in doses of 7.5, 15, 30, and 45 μg. Ostabolin-C™ is formulated as a clear, colorless liquid provided in pre-filled syringes and injected subcutaneously (SC). Subjects self-administer SC 0.1 mL injections of their assigned dose of Ostabolin-C™ 7.5, 15, 30, and 45 μg or placebo daily for 16 weeks in rotating quadrants of the abdomen. The subjects were post-menopausal women (for at least 5 years) with moderate osteoporosis.
The key endpoints for the study include change in mean BMD at the lumbar spine, as assessed by dual energy x-ray absorptiometry (DEXA), and measured by change from the Baseline visit. The Baseline visit is the first visit of the patient, before undergoing any treatment. Secondary efficacy endpoints include the following, as measured by change from Baseline visit:
DEXA: Bone formation and resorption markers: • Mean femoral neck BMD • Serum osteocalcin • Mean trochanter BMD • Serum amino terminal pro-peptide of type 1 pro-collagen (P1NP) • Mean total hip BMD • Mean radial BMD (distal and midshaft) • Bone specific alkaline phosphatase (BSAP) • Bone mineral content (BMC) • Serum C-telopeptide (CTx) • Bone area • Serum N-telopeptide (NTx)

[2] = tested on: gonad-intact cynomolgus monkeys; experiment: 52-week (12 months) daily subcutaneous study in gonad-intact young cynomolgus monkeys: bone mass, histomorphometry, % cortical porosity; assay type: in vivo
Procedure: The peptide [Leu^27]cyclo[Glu^22-Lys^26]-hPTH-(1-31)-NH2 Ostabolin-C™ was administered daily by subcutaneous injection to gonad-intact cynomolgus monkeys (4/sex/group) at dose levels of 0, 2, 10 and 25 μg/kg for 52 weeks. Monkeys were 30 to 40 months of age (2.3-3.5 kg) at treatment start. Tibiae were retained for histomorphometry following labeling with calcein green 15 and 5 days prior to euthanasia. Bone mass, as measured by DXA (dual-energy x-ray absorptiometry) and QCT (quantitative computed tomography), was increased at the lumbar spine, femur and tibia. Changes in vertebral BMD (bone mineral density) translated into significant increases in bone strength. […] Tibial cancellous bone volume increased by more than 50% in all the peptide [Leu^27]cyclo[Glu^22-Lys^26]-hPTH-(1-31)-NH2 treated groups compared to controls and in the tibial mid-diaphysis, increases in cortical width and relative cortical area with concurrent decreases in medullary area were observed. […] Increases in indices of bone formation were associated with decreases in indices of bone resorption (decreased bone resorption markers, decreased osteoclast surface area, minimal cortical porosity), consistent with the uncoupling of these events. This combination of anabolic and anti-catabolic actions may have significant therapeutic value in the treatment of osteoporosis.
Comparative data regarding increase in cortical bone porosity in monkey subjects using Ostabolin C at a variety of doses and using the prior art PTHs 1-34 is shown below.

[3] = tested on: post-menopausal women with low bone mineral density; experiment: Dose/weight cutoff subgroup analysis and modeling of Phase II 30 and 45 μg cohorts; assay type: in vivo, human; set-up: Mean LS-BMD / FN-BMD / TH-BMD / P1NP / CTx: unit not given here
Procedure: The effect of the dose optimization strategy was evaluated by performing subgroup analyses using actual data from the 30 and 45 μg cohorts of the study (i.e. creation of a new subgroup by combining all patients below the weight cutoff from the 30 μg dose group with all patients above the weight cutoff from the 45 μg dose group, shown in the table below).
A variety of new subgroups were created out of the patients who participated in the Phase II clinical trial. The groups from Phase II are shown above, where each group received a single dose, either 7.5 μg, 15 μg, 30 μg, 45 μg, or placebo. The 30 μg and 45 μg dose groups were re-grouped, according to the weight of the patient, and over 100 new sub-groups were created. This approach of creating new sub-groups out of dosages which are relatively close to each other, is a novel way of conducting Phase II studies.
For the 105 patients who were originally given 30 or 45 μg, new groups were created by utilizing multiple weight cut-offs in increments of 0.5 kg. For example, one new group had the weight cut-off at 59 kg, meaning that every patient from the original low dose (30 μg) group who weighed less than 59 kg and every patient who weighed more than 59 kg from the original high dose (45 μg) group formed a new cohort. This new cohort represents a dose/weight cut-off of 59 kg, a group in which patients weighing less than 59 kg receive the low dose (30 μg) and patients weighing more than 59 kg receive the high dose (45 μg). Another example can be illustrated using a weight cutoff of 68 kg. Such a group would include all those patients who weigh less than 68 kg and who originally received the low dose (30 μg) as well as all those patients who weigh more than 68 kg and who originally received the high dose (45 μg). By using this method, over 100 separate cohorts were created by altering the dose/weight cut-off in increments of 0.5 kg. A summary of the data generated by these new dose/weight cut-off cohorts, using 68 kg and 59 kg as the dose/weight cut-off, is shown in the table below.
The table above illustrates the actual clinical profile obtained for two dose/weight cutoffs (59 kg which produces a higher exposure profile since more patients receive the higher dose and 68 kg in which more patients receive the lower dose). […] One problem with simple subgroup analysis is that endpoints with a small number of events can skew the observed profile because of large changes in incidence when one of these events moves from one side of the weight cutoff to the other. Therefore, the dose/weight cutoff methodology was applied systematically to the data from the 30 and 45 μg dose groups starting at the lowest weight patient in the study (corresponds to the 45 μg profile because everyone receives the high dose) and increasing the cutoff by 0.5 kg increments through 100 kg (corresponding to the 30 μg profile because everyone receives the low dose). The multiple cutoff profiles thus obtained when graphed can then smooth out the effect of individual events as illustrated for the effect on hypercalcemia. The effect of weight cutoff on clinical profile can then be modeled to eliminate the skewing effects of individual data points as illustrated in FIG. 37-40. This approach has been applied to primary and secondary endpoints in the study.
An important benefit of this modeling is that it is possible to project a clinical profile for a specific weight cutoff/dose exposure window with a high degree of accuracy since the effect of individual events is eliminated. The anticipated hypercalcemia and lumbar spine BMD profile for a 68 kg cutoff is illustrated in the table below, which compares the modeled hypercalcemia and lumbar spine BMD changes and the actual Phase II data for the 68 kg weight cutoff. It will also be possible to model the effects of even narrower exposure windows by using multiple dose cutoffs and different doses.

[4] = tested on: rats; experiment: Rat oncogenicity study, 104 weeks subcutaneous; assay type: in vivo; conditions: 0.5, 5, 30, and 50 μg/kg/day SC
Procedure: Prior art PTHs cause osteosarcomas in animals if administered over a course of two years. The PTH peptides of the present invention, including Ostabolin-C™ and PTH 1-30, are administered subcutaneously to rats for 104 weeks at doses of 0.5, 5, 30, and 50 μg/kg/day. The test article is administered subcutaneously. […] This difference could be due to the different amino acids sequences and/or to the different signalling pathways activated by the PTH molecules.

Molecule: CC[C@H](C)[C@H](NC(=O)[C@H](CCC(=O)O)NC(=O)[C@H](CO)NC(=O)[C@@H](NC(=O)[C@@H](N)CO)C(C)C)C(=O)N[C@@H](CCC(N)=O)C(=O)N[C@@H](CC(C)C)C(=O)N[C@@H](CCSC)C(=O)N[C@@H](Cc1c[nH]cn1)C(=O)N[C@@H](CC(N)=O)C(=O)N[C@@H](CC(C)C)C(=O)NCC(=O)N[C@@H](CCCCN)C(=O)N[C@@H](Cc1c[nH]cn1)C(=O)N[C@@H](CC(C)C)C(=O)N[C@@H](CC(N)=O)C(=O)N[C@@H](CO)C(=O)N[C@@H](CCSC)C(=O)N[C@@H](CCC(=O)O)C(=O)N[C@@H](CCCNC(=N)N)C(=O)N[C@H](C(=O)N[C@H]1CCC(=O)NCCCC[C@@H](C(=O)N[C@@H](CC(C)C)C(=O)N[C@@H](CC(C)C)C(=O)N[C@@H](CCC(N)=O)C(=O)N[C@@H](CC(=O)O)C(=O)N[C@H](C(N)=O)C(C)C)NC(=O)[C@H](CCCNC(=N)N)NC(=O)[C@H](CC(C)C)NC(=O)[C@H](Cc2c[nH]c3ccccc23)NC1=O)C(C)C [Ostabolin-C, [Leu^27]cyclo[Glu^22-Lys^26]-PTH-(1-31)-NH2] (H-SVSEIQLMHNLGKHLNSMERVEWLRKLLQDV-NH2; lactam 22-26)
- bone resorption stimulation as % of expected effect of 20 μg Forteo ([1]; 30 μg): approximately 50%
- CTx ([1]; 30 μg (4 months)): 1400 pM/L
- FN-BMD (%) ([1]; 30 μg (4 months)): −0.05%
- LS-BMD (%) ([1]; 30 μg (4 months)): 3.6%
- LS-BMD (%), subset with LS-BMD T score < −2.5 ([1]; 30 μg (4 months)): 4.51%
- P1NP ([1]; 30 μg (4 months)): 50.0 µg/L
- TH-BMD (%) ([1]; 30 μg (4 months)): 0.06%
- CTx ([1]; 30 ug, 4 months): 30.6
- FN-BMD ([1]; 30 ug, 4 months): −0.06
- LS-BMD 3% ([1]; 30 ug, 4 months): 59.6
- LS-BMD 6% ([1]; 30 ug, 4 months): 19.1
- Mean LS-BMD ([1]; 30 ug, 4 months): 3.72
- P1NP ([1]; 30 ug, 4 months): 117.2
- TH-BMD ([1]; 30 ug, 4 months): 0.07
- BMD in the lumbar spine ([1]; 45 μg): increase in BMD
- CTx ([1]; 45 μg (4 months)): 2900 pM/L
- FN-BMD (%) ([1]; 45 μg (4 months)): 2.75%
- LS-BMD (%) ([1]; 45 μg (4 months)): 5.2%
- LS-BMD (%), subset with LS-BMD T score < −2.5 ([1]; 45 μg (4 months)): 5.9%
- P1NP ([1]; 45 μg (4 months)): 79.5 µg/L
- TH-BMD (%) ([1]; 45 μg (4 months)): 1.45%
- Mean % Change In Femoral Neck (BMD) ([1]; 45 μg For 15 Weeks): 2.75%
- Mean % Change In Total Hip (BMD) ([1]; 45 μg For 15 Weeks): 1.44%
- Mean % Change In Trochanter (BMD) ([1]; 45 μg For 15 Weeks): 2.24%
- CTx ([1]; 45 ug, 4 months): 60.3
- FN-BMD ([1]; 45 ug, 4 months): 3.0
- LS-BMD 3% ([1]; 45 ug, 4 months): 79.5
- LS-BMD 6% ([1]; 45 ug, 4 months): 36.4
- Mean LS-BMD ([1]; 45 ug, 4 months): 5.59
- P1NP ([1]; 45 ug, 4 months): 160.5
- TH-BMD ([1]; 45 ug, 4 months): 1.6
- cortical BMD in distal and mid-shaft radius compared to placebo and Forteo ([1]; 7.5, 15, and 30 μg): increases cortical BMD
- lumbar spine BMD ([1]; 7.5, 15, and 30 μg daily, 15 weeks): increase in lumbar spine BMD
- hip, femoral neck, and trochanter BMD ([1]; low doses, 15 weeks): mild BMD increase
- Bone mass (DXA, QCT) at lumbar spine, femur and tibia ([2]; 2, 10, 25 μg/kg SC daily, 52 weeks): increased
- osteoclast surface ([2]; 52 weeks): significant reduction
- Tibial cancellous bone volume increase compared to controls ([2]; all treated groups (2, 10, 25 μg/kg SC daily, 52 weeks)): more than 50%
- CTx ([3]; 59 kg cut): 57.5
- FN-BMD ([3]; 59 kg cut): 1.5
- LS-BMD 3% ([3]; 59 kg cut): 80.8
- LS-BMD 6% ([3]; 59 kg cut): 28.8
- P1NP ([3]; 59 kg cut): 143.5
- TH-BMD ([3]; 59 kg cut): 0.69
- Mean LS-BMD ([3]; 59 kg cut (30 μg below, 45 μg above)): 4.95
- CTx ([3]; 68 kg cut): 32.1
- FN-BMD ([3]; 68 kg cut): 0.29
- LS-BMD 3% ([3]; 68 kg cut): 78.0
- LS-BMD 6% ([3]; 68 kg cut): 29.3
- P1NP ([3]; 68 kg cut): 132.1
- TH-BMD ([3]; 68 kg cut): 0.40
- Mean LS-BMD ([3]; 68 kg cut (30 μg below, 45 μg above)): 4.65
- LS-BMD 3% ([3]; 68 kg cutoff, modeled): 76.5
- Mean LS-BMD ([3]; 68 kg cutoff, modeled): 4.57

Molecule: PTH(1-30) (SVSEIQLMHNLGKHLNSMERVEWLRKKLQD; Parathyroid hormone; UniProt P01270 32-61, looked up, fragment) [PTH 1-30]
- incidence of osteosarcomas compared to prior art PTH peptides [4]: lower incidences of osteosarcomas
